In patent US20100076015A1, “Aminopyridine Derivatives” (VANTIA LIMITED, priority 2008, published 2010):

How the values were obtained:
Assay type in all cases: biochemical
Human KLK1 = molecular target: T1, Human KLK1 (Homo sapiens, UniProt P06870); assay: Determination of the IC50 for KLK1 (fluorogenic substrate H-DVal-Leu-Arg-AFC); settings: 37° C.
T1 construct: purchased Callbiochem (Calbiochem)
Method in brief: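 hKLK1 + H-DVal-Leu-Arg-AFC, 37° C, varied cpd conc. Initial rate by A410 change → residual activity → IC50.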

plasma kallikrein = plasma kallikrein (Homo sapiens, UniProt P03952); assay: Enzyme selectivity: plasma kallikrein (chromogenic substrate S-2302); settings: chromogenic substrate S-2302, 37° C.
Description: (§1) Determination of Enzyme Selectivity
(§2) Selected compounds were further screened for inhibitory activity against other trypsin-like serine proteases using the appropriate enzyme and chromogenic substrate (Chromogenix AB). The activity against the following human enzymes was tested (substrate in brackets):—plasma kallikrein (S-2302), thrombin (S-2238), plasmin (S-2390) and trypsin (S-2222). The enzyme was incubated at 37° C. with the chromogenic substrate. Residual enzyme activity (initial rate of reaction) was determined by measuring the change in optical absorbance at 405 nm.

thrombin = thrombin (Homo sapiens, UniProt P00734); assay: Enzyme selectivity: thrombin (chromogenic substrate S-2238); settings: chromogenic substrate S-2238, 37° C.
Description: as §1, §2

plasmin = plasmin (Homo sapiens, UniProt P00747); assay: Enzyme selectivity: plasmin (chromogenic substrate S-2390); settings: chromogenic substrate S-2390, 37° C.
Description: as §1, §2

trypsin = assay: Enzyme selectivity: trypsin (chromogenic substrate S-2222); settings: human enzyme, chromogenic substrate S-2222, 37° C.
Description: as §1, §2

Sequence of plasmin (P00747 581-810 limits assumed): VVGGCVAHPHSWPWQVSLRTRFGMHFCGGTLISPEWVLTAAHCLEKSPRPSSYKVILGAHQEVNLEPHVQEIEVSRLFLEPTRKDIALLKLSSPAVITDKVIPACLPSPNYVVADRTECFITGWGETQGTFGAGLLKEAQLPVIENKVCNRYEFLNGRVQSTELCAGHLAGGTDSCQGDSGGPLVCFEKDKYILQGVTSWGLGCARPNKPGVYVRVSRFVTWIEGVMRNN
Sequence of plasmin (P00747 97-580 partner limits assumed): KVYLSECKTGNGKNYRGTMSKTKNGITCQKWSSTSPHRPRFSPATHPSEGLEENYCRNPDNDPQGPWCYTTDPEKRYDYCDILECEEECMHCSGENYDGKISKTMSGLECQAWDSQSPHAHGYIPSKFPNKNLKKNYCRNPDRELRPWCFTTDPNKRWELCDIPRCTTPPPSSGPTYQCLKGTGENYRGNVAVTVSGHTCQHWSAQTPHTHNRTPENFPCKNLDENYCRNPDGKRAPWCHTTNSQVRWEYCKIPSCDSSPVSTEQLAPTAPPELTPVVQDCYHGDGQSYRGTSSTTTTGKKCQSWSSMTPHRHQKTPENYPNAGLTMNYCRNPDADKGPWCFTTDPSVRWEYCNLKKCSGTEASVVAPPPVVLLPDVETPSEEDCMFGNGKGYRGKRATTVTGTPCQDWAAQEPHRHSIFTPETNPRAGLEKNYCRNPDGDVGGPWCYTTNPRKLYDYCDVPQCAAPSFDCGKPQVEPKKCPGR
Sequence of plasma kallikrein (P03952 20-638): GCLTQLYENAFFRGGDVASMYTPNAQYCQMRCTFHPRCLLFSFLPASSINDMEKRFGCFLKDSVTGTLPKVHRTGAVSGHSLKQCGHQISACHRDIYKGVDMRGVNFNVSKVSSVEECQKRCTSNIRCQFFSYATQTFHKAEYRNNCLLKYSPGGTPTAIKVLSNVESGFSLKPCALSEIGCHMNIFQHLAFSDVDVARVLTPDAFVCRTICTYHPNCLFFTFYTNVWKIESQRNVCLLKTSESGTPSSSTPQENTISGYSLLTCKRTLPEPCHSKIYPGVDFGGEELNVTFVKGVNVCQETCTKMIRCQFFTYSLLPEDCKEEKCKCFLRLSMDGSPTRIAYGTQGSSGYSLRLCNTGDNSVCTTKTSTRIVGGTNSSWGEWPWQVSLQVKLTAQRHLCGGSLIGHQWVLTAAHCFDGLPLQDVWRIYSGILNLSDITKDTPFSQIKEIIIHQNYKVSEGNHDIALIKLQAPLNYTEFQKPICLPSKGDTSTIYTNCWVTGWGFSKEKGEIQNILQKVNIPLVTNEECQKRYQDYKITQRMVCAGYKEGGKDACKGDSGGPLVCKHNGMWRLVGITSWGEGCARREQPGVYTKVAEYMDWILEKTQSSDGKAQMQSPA
T1 sequence (P06870 25-262): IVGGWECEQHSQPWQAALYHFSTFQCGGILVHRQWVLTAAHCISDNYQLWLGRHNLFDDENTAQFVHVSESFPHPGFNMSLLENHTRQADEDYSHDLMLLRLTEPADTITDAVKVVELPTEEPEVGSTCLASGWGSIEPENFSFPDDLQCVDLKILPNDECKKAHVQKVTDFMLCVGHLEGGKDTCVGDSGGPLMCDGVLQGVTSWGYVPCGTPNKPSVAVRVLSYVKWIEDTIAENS

Row | IC50 (Human KLK1) [µM] | IC50 (plasma kallikrein) [µM] | IC50 (thrombin) [µM] | IC50 (plasmin) [µM] | IC50 (trypsin) [µM] | SMILES
1 | 0.0021 | > 10 | > 10 | > 10 | > 10 | Cc1cc(C)c(C(=O)N[C@@H](Cc2ccc(Cl)c(Cl)c2)C(=O)NCc2ccc(N)nc2)[nH]1 [Example 233, 3,5-Dimethyl-1H-pyrrole-2-carboxylic acid [(S)-1-[(6-amino-pyridin-3-ylmethyl)-carbamoyl]-2-(3,4-dichloro-phenyl)-ethyl]-amide]
2 | 0.0098 | > 10 | > 10 | > 10 | > 10 | CCC(C)[C@@H](N)C(=O)N[C@@H](Cc1ccccc1C(F)(F)F)C(=O)NCc1ccc(N)nc1 (stereo partly drawn) [Example 25, (R)-2-Amino-3-methyl-pentanoic acid [(S)-1-[(6-amino-pyridin-3-ylmethyl)-carbamoyl]-2-(2-trifluoromethyl-phenyl)-ethyl]-amide]
3 | 0.00056 | > 10 | > 10 | > 10 | > 10 | Nc1ccc(CNC(=O)[C@H](Cc2ccc(Cl)c(Cl)c2)NC(=O)[C@H](N)Cc2ccc(Cl)cc2)cn1 [Example 59, (R)-2-Amino-N-[(S)-1-[(6-amino-pyridin-3-ylmethyl)-carbamoyl]-2-(3,4-dichloro-phenyl)-ethyl]-3-(4-chloro-phenyl)-propionamide]
4 | 0.0025 | > 10 | > 10 | > 10 | > 10 | CCN(CC)[C@@H](C)C(=O)N[C@@H](Cc1ccc(F)c(F)c1)C(=O)NCc1ccc(N)nc1 [Example 355, (S)—N-[(S)-1-[(6-Amino-pyridin-3-ylmethyl)-carbamoyl]-2-(3,4-difluoro-phenyl)-ethyl]-2-diethylamino-propionamide]
5 | 0.0032 | > 10 | > 10 | > 10 | > 10 | Cc1cccc(C[C@H](NC(=O)c2[nH]c(C)cc2C)C(=O)NCc2ccc(N)nc2)c1 [Example 234, 3,5-Dimethyl-1H-pyrrole-2-carboxylic acid {(S)-1-[(6-amino-pyridin-3-ylmethyl)-carbamoyl]-2-m-tolyl-ethyl}-amide]
6 | 0.0011 | > 10 | > 10 | > 10 | > 10 | CC(C)N(C)[C@@H](C)C(=O)N[C@@H](CC1CCCCC1)C(=O)NCc1ccc(N)nc1 [Example 381, (S)—N-{(S)-1-[(6-Amino-pyridin-3-ylmethyl)-carbamoyl]-2-cyclohexyl-ethyl}-2-(isopropyl-methyl-amino)-propionamide]
7 | 0.00054 | > 10 | > 10 | > 10 | > 10 | CCN1CCC[C@@H]1C(=O)N[C@@H](Cc1ccc(F)c(F)c1)C(=O)NCc1ccc(N)nc1 [Example 131, (R)-1-Ethyl-pyrrolidine-2-carboxylic acid [(S)-1-[(6-amino-pyridin-3-ylmethyl)-carbamoyl]-2-(3,4-difluoro-phenyl)-ethyl]-amide]
8 | 0.0102 | > 10 | > 10 | > 10 | > 10 | CCC(C)[C@@H](N)C(=O)N[C@@H](Cc1cccc(F)c1)C(=O)NCc1ccc(N)nc1 (stereo partly drawn) [Example 29, (R)-2-Amino-3-methyl-pentanoic acid [(S)-1-[(6-amino-pyridin-3-ylmethyl)-carbamoyl]-2-(3-fluoro-phenyl)-ethyl]-amide]
9 | 0.0044 | > 10 | > 10 | > 10 | > 10 | Cc1cc(C)c(C(=O)N[C@@H](Cc2ccc(F)cc2)C(=O)NCc2ccc(N)nc2)[nH]1 [Example 242, 3,5-Dimethyl-1H-pyrrole-2-carboxylic acid [(S)-1-[(6-amino-pyridin-3-ylmethyl)-carbamoyl]-2-(4-fluoro-phenyl)-ethyl]-amide]
10 | 0.0004 | > 10 | > 10 | > 10 | > 10 | CC(C)(C)[C@@H](N)C(=O)N[C@@H](Cc1ccc(Cl)c(Cl)c1)C(=O)NCc1ccc(N)nc1 [Example 61, (R)-2-Amino-N-[(S)-1-[(6-amino-pyridin-3-ylmethyl)-carbamoyl]-2-(3,4-dichloro-phenyl)-ethyl]-3,3-dimethyl-butyramide]
11 | 0.0105 | > 10 | > 10 | > 10 | > 10 | CN1CCCC[C@@H]1C(=O)N[C@@H](Cc1ccc(F)cc1)C(=O)NCc1ccc(N)nc1 [Example 145, (R)-1-Methyl-piperidine-2-carboxylic acid [(S)-1-[(6-amino-pyridin-3-ylmethyl)-carbamoyl]-2-(4-fluoro-phenyl)-ethyl]-amide]
12 | 0.0024 | > 10 | > 10 | > 10 | > 10 | Cc1cc(C)c(C(=O)N[C@@H](Cc2cccc(Cl)c2)C(=O)NCc2ccc(N)nc2)[nH]1 [Example 235, 3,5-Dimethyl-1H-pyrrole-2-carboxylic acid [(S)-1-[(6-amino-pyridin-3-ylmethyl)-carbamoyl]-2-(3-chloro-phenyl)-ethyl]-amide]
13 | 0.0015 | > 10 | > 10 | > 10 | > 10 | Cc1cc(C)c(C(=O)N[C@@H](Cc2cccc(C(F)(F)F)c2)C(=O)NCc2ccc(N)nc2)[nH]1 [Example 232, 3,5-Dimethyl-1H-pyrrole-2-carboxylic acid [(S)-1-[(6-amino-pyridin-3-ylmethyl)-carbamoyl]-2-(3-trifluoromethyl-phenyl)-ethyl]-amide]
14 | 0.0013 | > 10 | > 10 | > 10 | > 10 | CN1CCC[C@@H]1C(=O)N[C@@H](Cc1ccc(F)c(F)c1)C(=O)NCc1ccc(N)nc1 [Example 5, (R)-1-Methyl-pyrrolidine-2-carboxylic acid [(S)-1-[(6-amino-pyridin-3-ylmethyl)-carbamoyl]-2-(3,4-difluoro-phenyl)-ethyl]-amide]

Row | SMILES | IC50 (Human KLK1) [µM] | IC50 (plasma kallikrein) [µM] | IC50 (thrombin) [µM] | IC50 (plasmin) [µM] | IC50 (trypsin) [µM]
15 | CC(C)N(CC(=O)N[C@@H](Cc1ccc(F)c(F)c1)C(=O)NCc1ccc(N)nc1)C(C)C [Example 157, (S)—N-(6-Amino-pyridin-3-ylmethyl)-3-(3,4-difluoro-phenyl)-2-(2-diisopropylamino-acetylamino)-propionamide] | 0.123 | > 10 | > 10 | > 10 | > 10
